Data on four compounds can be found in patent US20260001928A1 (CORTERIA PHARMACEUTICALS, priority 2022, published 2026).

*1 amine or outer side, *2 acyl side, *3 side chain or, on linkers, in order; H or OH if unused. Where a SMILES comes first, the peptide text is derived from it. Side-chain parts run from the residue outwards. [ ]: non-standard residue; d: D form. The star is where a group is joined. C18 diacid = O=C(O)CCCCCCCCCCCCCCCCC(=O)*; γGlu = O=C(O)[C@H](CCC(=O)[*:2])N[*:1]; NMeI = CC[C@H](C)[C@H](NC)C(=O)O; Pentanoyl = CCCCC(=O)*; AEEA = NCCOCCOCC(=O)O; Aib = CC(C)(N)C(=O)O

This assay deals with T1, CFR1R receptor (Homo sapiens, UniProt P34998).
T1 construct: host or cells: CHO-K1 (clone 2)
T1 sequence (P34998 24-415): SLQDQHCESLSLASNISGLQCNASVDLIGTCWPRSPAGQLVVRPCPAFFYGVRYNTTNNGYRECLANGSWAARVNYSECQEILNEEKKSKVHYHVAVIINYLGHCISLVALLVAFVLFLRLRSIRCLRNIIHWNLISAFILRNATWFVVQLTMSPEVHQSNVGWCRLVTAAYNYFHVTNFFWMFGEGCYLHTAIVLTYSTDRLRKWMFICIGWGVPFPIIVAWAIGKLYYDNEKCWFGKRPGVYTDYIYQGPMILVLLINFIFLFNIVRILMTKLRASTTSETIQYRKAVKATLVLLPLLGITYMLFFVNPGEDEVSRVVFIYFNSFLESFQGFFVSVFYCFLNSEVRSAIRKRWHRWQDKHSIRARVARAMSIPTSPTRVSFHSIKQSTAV
Description: Activity at anti-target CFR1R receptor, cAMP assay in CRF1R-overexpression CHO-K1 cells. Format: cell-based. To be noted: 100% = Sauvagine at 100 nM. As to the method: Assessment of activity at anti-target CFR1R receptor is done using the same procedure as the one described for the TeloHEAC cell line. The CRF1R-overexpression CHO-K1 cell line clone 2 was purchased from PerkinElmer. Cells were grown in a 10 cm dish at 37° C./5% CO2 in medium (F12 (Hams)/10% FBS/400 μg/ml G418) to near confluence. At that stage, cells were harvested, resuspended to 10 million/mL in culture medium without G418 and with 10% DMSO. 1 mL vial aliquots were slowly frozen to −80° C. in isopropanol and then transferred in liquid nitrogen for storage. These vials were used to run the experiment following the procedure reported in the previous paragraph, except for the compound used in the control well to define the 100% activation (Sauvagine at 100 nM) and the cell density (final cell density: 4000 cells/well)
For orientation: Cyclic AMP is a second messenger, typically raised through Gs and lowered through Gi signalling.

Turning to `CC[C@H](C)[C@H](NC(C)=O)C(=O)N[C@H](C(=O)N[C@@H](CC(C)C)C(=O)N[C@@H](CO)C(=O)N[C@@H](CC(C)C)C(=O)N[C@@H](CC(=O)O)C(=O)N[C@H](C(=O)N1CCC[C@H]1C(=O)N[C@H](C(=O)N[C@@H](CCCCN)C(=O)N[C@@H](CC(C)C)C(=O)N[C@@H](CCCCNC(=O)COCCOCCNC(=O)COCCOCCNC(=O)CC[C@H](NC(=O)CC[C@H](NC(=O)CCCCCCCCCCCCCCCCC(=O)O)C(=O)O)C(=O)O)C(=O)N[C@@H](CCC(N)=O)C(=O)NC(C)(C)C(=O)N[C@@H](CC(C)C)C(=O)N[C@@H](CC(C)C)C(=O)N[C@@H](CCCCN)C(=O)N[C@@H](CCC(N)=O)C(=O)N[C@@H](CCC(=O)O)C(=O)N[C@@H](CCCNC(=N)N)C(=O)N[C@@H](CCC(N)=O)C(=O)N[C@@H](CCCCN)C(=O)N[C@@H](CCCCN)C(=O)N[C@@H](CCC(N)=O)C(=O)N[C@@H](CCCNC(=N)N)C(=O)N[C@@H](CCC(=O)O)C(=O)N[C@@H](CCC(N)=O)C(=O)N[C@@H](C)C(=O)N[C@@H](CCC(=O)O)C(=O)N[C@@H](CCCCN)C(=O)N[C@@H](CC(N)=O)C(=O)NC(C)(C)C(=O)N[C@@H](CCC(N)=O)C(=O)N[C@H](C(=O)N[C@@H](CC(C)C)C(=O)N[C@@H](CCC(=O)O)C(=O)N[C@@H](CCC(N)=O)C(=O)N[C@H](C(N)=O)C(C)C)[C@@H](C)CC)[C@@H](C)CC)C(C)C)C(C)C` [compound 26] (Ac-IVLSLDVPIKLK([AEEA-AEEA-γGlu-γGlu-C18 diacid])Q[Aib]LLKQERQKKQREQAEKN[Aib]QILEQV-NH2), the “Emax (% I)” value stood at 1 % I. The figure for `CC[C@H](C)[C@H](NC(C)=O)C(=O)N[C@H](C(=O)N[C@@H](CC(C)C)C(=O)N[C@@H](CO)C(=O)N[C@@H](CC(C)C)C(=O)N[C@@H](CC(=O)O)C(=O)N[C@@H](C(=O)N1CCC[C@H]1C(=O)N[C@H](C(=O)N[C@@H](CCCCN)C(=O)N[C@@H](CC(C)C)C(=O)N[C@@H](CCCCNC(=O)COCCOCCNC(=O)COCCOCCNC(=O)CC[C@H](NC(=O)CC[C@H](NC(=O)CCCCCCCCCCCCCCCCC(=O)O)C(=O)O)C(=O)O)C(=O)N[C@@H](CCC(N)=O)C(=O)NC(C)(C)C(=O)N[C@@H](CC(C)C)C(=O)N[C@@H](CC(C)C)C(=O)N[C@@H](CCCCN)C(=O)N[C@@H](CCC(N)=O)C(=O)N[C@@H](CCC(=O)O)C(=O)N[C@@H](CCCNC(=N)N)C(=O)N[C@@H](CCC(N)=O)C(=O)N[C@@H](CCCCN)C(=O)N[C@@H](CCCCN)C(=O)N[C@@H](CCC(N)=O)C(=O)N[C@@H](CCCNC(=N)N)C(=O)N[C@@H](CCC(=O)O)C(=O)N[C@@H](CCC(N)=O)C(=O)N[C@@H](C)C(=O)N[C@@H](CCC(=O)O)C(=O)N[C@@H](CCCCN)C(=O)N[C@@H](CC(N)=O)C(=O)N[C@H](C(=O)N[C@@H](CCC(N)=O)C(=O)N[C@H](C(=O)N[C@@H](CC(C)C)C(=O)N[C@@H](CCC(=O)O)C(=O)N[C@@H](CCC(N)=O)C(=O)N[C@H](C(N)=O)C(C)C)[C@@H](C)CC)C(C)C)[C@@H](C)CC)C(C)C)C(C)C` [compound 27] (Ac-IVLSLD[dV]PIKLK([AEEA-AEEA-γGlu-γGlu-C18 diacid])Q[Aib]LLKQERQKKQREQAEKNVQILEQV-NH2) is 7 % I; for `CC[C@H](C)[C@H](NC)C(=O)N[C@H](C(=O)N[C@@H](CC(C)C)C(=O)N[C@@H](CO)C(=O)N[C@@H](CC(C)C)C(=O)N[C@@H](CC(=O)O)C(=O)N[C@@H](C(=O)N1CCC[C@H]1C(=O)N[C@H](C(=O)N[C@@H](CCCCN)C(=O)N[C@@H](CC(C)C)C(=O)N[C@@H](CCCCNC(=O)COCCOCCNC(=O)COCCOCCNC(=O)CC[C@H](NC(=O)CC[C@H](NC(=O)CCCCCCCCCCCCCCCCC(=O)O)C(=O)O)C(=O)O)C(=O)N[C@@H](CCC(N)=O)C(=O)NC(C)(C)C(=O)N[C@@H](CC(C)C)C(=O)N[C@@H](CC(C)C)C(=O)N[C@@H](CCCCN)C(=O)N[C@@H](CCC(N)=O)C(=O)N[C@@H](CCC(=O)O)C(=O)N[C@@H](CCCNC(=N)N)C(=O)N[C@@H](CCC(N)=O)C(=O)N[C@@H](CCCCN)C(=O)N[C@@H](CCCCN)C(=O)N[C@@H](CCC(N)=O)C(=O)N[C@@H](CCCNC(=N)N)C(=O)N[C@@H](CCC(=O)O)C(=O)N[C@@H](CCC(N)=O)C(=O)N[C@@H](C)C(=O)N[C@@H](CCC(=O)O)C(=O)N[C@@H](CCCCN)C(=O)N[C@@H](CC(N)=O)C(=O)N[C@H](C(=O)N[C@@H](CCC(N)=O)C(=O)N[C@H](C(=O)N[C@@H](CC(C)C)C(=O)N[C@@H](CCC(=O)O)C(=O)N[C@@H](CCC(N)=O)C(=O)N[C@H](C(N)=O)C(C)C)[C@@H](C)CC)C(C)C)[C@@H](C)CC)C(C)C)C(C)C` [compound 28] (H-[NMeI]VLSLD[dV]PIKLK([AEEA-AEEA-γGlu-γGlu-C18 diacid])Q[Aib]LLKQERQKKQREQAEKNVQILEQV-NH2) it is 6 % I.

For `CCCCC(=O)N[C@H](C(=O)N[C@@H](CC(C)C)C(=O)N[C@@H](CO)C(=O)N[C@@H](CC(C)C)C(=O)N[C@@H](CC(=O)O)C(=O)N[C@@H](C(=O)N1CCC[C@H]1C(=O)N[C@H](C(=O)N[C@@H](CCCCN)C(=O)N[C@@H](CC(C)C)C(=O)N[C@@H](CCCCNC(=O)COCCOCCNC(=O)COCCOCCNC(=O)CC[C@H](NC(=O)CC[C@H](NC(=O)CCCCCCCCCCCCCCCCC(=O)O)C(=O)O)C(=O)O)C(=O)N[C@@H](CCC(N)=O)C(=O)NC(C)(C)C(=O)N[C@@H](CC(C)C)C(=O)N[C@@H](CC(C)C)C(=O)N[C@@H](CCCCN)C(=O)N[C@@H](CCC(N)=O)C(=O)N[C@@H](CCC(=O)O)C(=O)N[C@@H](CCCNC(=N)N)C(=O)N[C@@H](CCC(N)=O)C(=O)N[C@@H](CCCCN)C(=O)N[C@@H](CCCCN)C(=O)N[C@@H](CCC(N)=O)C(=O)N[C@@H](CCCNC(=N)N)C(=O)N[C@@H](CCC(=O)O)C(=O)N[C@@H](CCC(N)=O)C(=O)N[C@@H](C)C(=O)N[C@@H](CCC(=O)O)C(=O)N[C@@H](CCCCN)C(=O)N[C@@H](CC(N)=O)C(=O)N[C@H](C(=O)N[C@@H](CCC(N)=O)C(=O)N[C@H](C(=O)N[C@@H](CC(C)C)C(=O)N[C@@H](CCC(=O)O)C(=O)N[C@@H](CCC(N)=O)C(=O)N[C@H](C(N)=O)C(C)C)[C@@H](C)CC)C(C)C)[C@@H](C)CC)C(C)C)C(C)C` [compound 29] (Pentanoyl-VLSLD[dV]PIKLK([AEEA-AEEA-γGlu-γGlu-C18 diacid])Q[Aib]LLKQERQKKQREQAEKNVQILEQV-NH2), the “Emax (% I)” value is on record as 6 % I.
